From patent US10364238B2, “N-((het) arylmethyl)-heteroaryl-carboxamides compounds as plasma kallikrein inhibitors” (KALVISTA PHARMACEUTICALS LIMITED, priority 2014, dated 2019) come the findings set out here.

Common to all, as to format: biochemical
In one assay the target is Human plasma kallikrein (Homo sapiens (Human), UniProt P03952). Put plainly: Determination of the IC50 for plasma kallikrein. As to conditions: 25° C., fluorogenic substrate H-DPro-Phe-Arg-AFC; read-out: IC50 (human PKaI). The protocol: Determination of the IC50 for Plasma Kallikrein
Human plasma kallikrein, sequence (P03952 391-638): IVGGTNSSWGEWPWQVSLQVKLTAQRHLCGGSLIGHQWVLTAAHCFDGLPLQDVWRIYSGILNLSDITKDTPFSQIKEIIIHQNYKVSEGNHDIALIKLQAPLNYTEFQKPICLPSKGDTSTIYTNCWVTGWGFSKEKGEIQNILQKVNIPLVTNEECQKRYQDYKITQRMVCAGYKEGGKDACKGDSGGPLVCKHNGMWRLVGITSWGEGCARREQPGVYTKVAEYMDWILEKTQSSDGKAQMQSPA
Human plasma kallikrein, sequence (P03952 20-390 partner): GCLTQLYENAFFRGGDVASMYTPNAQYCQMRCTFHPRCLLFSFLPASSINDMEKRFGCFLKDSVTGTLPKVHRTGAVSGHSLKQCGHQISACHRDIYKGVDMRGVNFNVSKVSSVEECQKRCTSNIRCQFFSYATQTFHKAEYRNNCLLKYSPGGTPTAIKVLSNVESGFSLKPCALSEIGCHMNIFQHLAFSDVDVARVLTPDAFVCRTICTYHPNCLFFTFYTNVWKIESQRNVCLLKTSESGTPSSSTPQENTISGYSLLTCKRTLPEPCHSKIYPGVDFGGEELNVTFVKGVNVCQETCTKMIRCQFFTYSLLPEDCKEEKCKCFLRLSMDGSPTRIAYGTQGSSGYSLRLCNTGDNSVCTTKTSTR
Human plasma kallikrein (Protogen) was incubated at 25° C. with the fluorogenic substrate H-DPro-Phe-Arg-AFC and various concentrations of the test compound. Residual enzyme activity (initial rate of reaction) was determined by measuring the change in […] at 410 nm and the IC50 value for the test compound was determined.

The next assay addresses Human KLK1 (Homo sapiens (Human), UniProt P06870). Put plainly: Determination of the IC50 for KLK1. To be noted: 25° C., fluorogenic substrate H-DVal-Leu-Arg-AFC. The method, then: Determination of the IC50 for KLK1
Human KLK1 (Callbiochem) was incubated at 25° C. with the fluorogenic substrate H-DVal-Leu-Arg-AFC and various concentrations of the test compound. Residual enzyme activity (initial rate of reaction) was determined by measuring the change in […] at 410 nm and the IC50 value for the test compound was determined.

In the next assay the target is Human FXIa (Homo sapiens (Human), UniProt P03951). Put plainly: Determination of the % inhibition for FXIa. To be noted: 40 μM test compound, 25° C., substrate Z-Gly-Pro-Arg-AFC. The protocol: Determination of the % Inhibition for FXIa
Human FXIa, sequence (P03951 388-625): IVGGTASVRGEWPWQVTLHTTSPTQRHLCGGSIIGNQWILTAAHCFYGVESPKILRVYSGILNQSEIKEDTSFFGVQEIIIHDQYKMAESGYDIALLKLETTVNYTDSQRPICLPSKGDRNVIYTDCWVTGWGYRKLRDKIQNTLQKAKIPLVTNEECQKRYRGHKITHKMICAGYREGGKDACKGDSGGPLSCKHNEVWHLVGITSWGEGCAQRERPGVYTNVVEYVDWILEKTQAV
Human FXIa, sequence (P03951 19-387 partner): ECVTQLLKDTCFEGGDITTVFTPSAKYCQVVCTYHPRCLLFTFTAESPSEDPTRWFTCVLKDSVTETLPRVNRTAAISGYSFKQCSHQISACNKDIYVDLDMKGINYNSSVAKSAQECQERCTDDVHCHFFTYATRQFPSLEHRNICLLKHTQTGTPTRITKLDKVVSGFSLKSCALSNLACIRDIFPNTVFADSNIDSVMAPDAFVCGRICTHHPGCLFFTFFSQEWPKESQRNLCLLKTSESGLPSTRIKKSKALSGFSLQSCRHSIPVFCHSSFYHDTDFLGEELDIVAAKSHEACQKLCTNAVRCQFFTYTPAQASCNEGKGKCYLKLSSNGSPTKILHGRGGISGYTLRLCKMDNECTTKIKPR
Human FXIa (Enzyme Research Laboratories) was incubated at 25° C. with the fluorogenic substrate Z-Gly-Pro-Arg-AFC and 40 μM of the test compound. Residual enzyme activity (initial rate of reaction) was determined by measuring the change in […].

Human KLK1, sequence (P06870 25-262): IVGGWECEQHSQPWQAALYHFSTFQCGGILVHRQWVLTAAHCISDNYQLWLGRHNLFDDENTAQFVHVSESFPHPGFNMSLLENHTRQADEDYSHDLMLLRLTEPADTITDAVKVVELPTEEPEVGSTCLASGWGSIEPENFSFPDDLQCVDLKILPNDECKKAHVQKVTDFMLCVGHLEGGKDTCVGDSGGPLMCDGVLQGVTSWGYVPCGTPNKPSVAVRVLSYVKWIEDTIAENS

On to `COCc1nn(Cc2ccc(Cn3ccccc3=O)cc2)cc1C(=O)NCc1cccc(OC(F)F)c1F` [Example 90, N-{[3-(difluoromethoxy)-2-fluorophenyl]methyl}-3-(methoxymethyl)-1-({4-[(2-oxopyridin-1-yl)methyl]phenyl}methyl)pyrazole-4-carboxamide], for which the IC50 at Human plasma kallikrein is 154 nM; on Human KLK1, over 40000 nM. This molecule had an inhibition at 40 µM at Human FXIa of 2%.

Take `COCc1nn(Cc2ccc(Cn3ccccc3=O)cc2)cc1C(=O)NCc1cccc(OC)c1C(F)(F)F` [Example 78, N-{[3-methoxy-2-(trifluoromethyl)phenyl]methyl}-3-(methoxymethyl)-1-({4-[(2-oxopyridin-1-yl)methyl]phenyl}methyl)pyrazole-4-carboxamide]: the concentration for half-maximal inhibition (IC50) at Human plasma kallikrein is 612 nM; against Human KLK1 it was over 10000 nM. On Human FXIa, this molecule gave an inhibition at 40 µM of 0%.

Consider `NC(=O)c1cccc(CNC(=O)c2cn(Cc3ccc(Cn4ccccc4=O)cc3)nc2C2CC2)c1` [Example 49, N-[(3-carbamoylphenyl)methyl]-3-cyclopropyl-1-({4-[(2-oxopyridin-1-yl)methyl]phenyl}methyl)pyrazole-4-carboxamide], for which the IC50 on Human plasma kallikrein was 5450 nM; against Human KLK1, over 10000 nM. Further, the “% Inhibition @ 40 μM (human FXIa)” value at Human FXIa came out at 0%.

On to `COCc1nn(Cc2ccc(Cn3ccccc3=O)cc2)cc1C(=O)NCc1ccccc1C(=O)O` [Example 87, 2-({[3-(methoxymethyl)-1-({4-[(2-oxopyridin-1-yl)methyl]phenyl}methyl)pyrazol-4-yl]formamido}methyl)benzoic acid], for which the IC50 at Human plasma kallikrein and against Human KLK1 was over 10000 nM throughout. The molecule further showed an inhibition at 40 µM against Human FXIa of 2%.

For the molecule `COCc1nn(Cc2ccc(Cn3ccccc3=O)cc2)cc1C(=O)NCc1ccccc1C(F)F` [Example 68, N-{[2-(difluoromethyl)phenyl]methyl}-3-(methoxymethyl)-1-({4-[(2-oxopyridin-1-yl)methyl]phenyl}methyl)pyrazole-4-carboxamide], the IC50 at Human plasma kallikrein is 81.1 nM; on Human KLK1 it was over 10000 nM. For the same molecule, at 40 µM the inhibition on Human FXIa was 6%.

For the molecule `COCc1nn(Cc2ccc(Cn3ccccc3=O)cc2)cc1C(=O)NCc1ccccc1C(F)(F)F` [Example 63, 3-(methoxymethyl)-1-({4-[(2-oxopyridin-1-yl)methyl]phenyl}methyl)-N-{[2-(trifluoromethyl)phenyl]methyl}pyrazole-4-carboxamide], the 50% inhibitory concentration (IC50) at Human plasma kallikrein was 342 nM; at Human KLK1 it was over 10000 nM. On Human FXIa, the inhibition at 40 µM is 0%.

For the molecule `COCc1nn(Cc2ccc(Cn3ccccc3=O)cc2)cc1C(=O)NCc1c(OC)ccc(OC)c1F` [Example 54, N-[(2-fluoro-3,6-dimethoxyphenyl)methyl]-3-(methoxymethyl)-1-({4-[(2-oxopyridin-1-yl)methyl]phenyl}methyl)pyrazole-4-carboxamide], the figures for the IC50 on Human plasma kallikrein and at Human KLK1 were 2.1 nM and over 40000 nM, respectively. Besides, at 40 µM the inhibition against Human FXIa was 17%.

`COCc1nn(Cc2cnc3cc(Cl)ccc3c2)cc1C(=O)NCc1cccc(OC)c1F` [Example 3, 1-(7-Chloro-quinolin-3-ylmethyl)-3-methoxymethyl-1H-pyrazole-4-carboxylic acid 2-fluoro-3-methoxy-benzylamide]: the values for the IC50 at Human plasma kallikrein and at Human KLK1 were 2580 nM and over 10000 nM, respectively. On Human FXIa, this molecule came in with an inhibition at 40 µM of 3%.

On to `COCc1nn(Cc2ccc(Cn3ccccc3=O)cc2)cc1C(=O)NCc1ccc(C)nc1` [Example 39, 3-(methoxymethyl)-N-[(6-methylpyridin-3-yl)methyl]-1-({4-[(2-oxopyridin-1-yl)methyl]phenyl}methyl)pyrazole-4-carboxamide], for which the inhibition at 40 µM on Human FXIa was found to be 0%.

For `COCc1nn(Cc2ccc(Cn3ccccc3=O)cc2)cc1C(=O)NCc1cnccc1C(F)(F)F` [Example 37, 3-(methoxymethyl)-1-({4-[(2-oxopyridin-1-yl)methyl]phenyl}methyl)-N-{[4-(trifluoromethyl)pyridin-3-yl]methyl}pyrazole-4-carboxamide], the inhibition at 40 µM against Human FXIa turned out to be 0%.

At Human FXIa, `CCOc1cccc(CNC(=O)c2cn(Cc3ccc(Cn4cc(C)cn4)cc3)nc2C(F)(F)F)c1` [Example 6, N-[(3-ethoxyphenyl)methyl]-1-({4-[(4-methylpyrazol-1-yl)methyl]phenyl}methyl)-3-(trifluoromethyl)pyrazole-4-carboxamide] registered an inhibition at 40 µM of 0%.

As for `COc1cccc(CNC(=O)c2cn(Cc3ccc(Cn4cc(C)cn4)cc3)nc2C(F)(F)F)c1F` [Example 4, N-[(2-fluoro-3-methoxyphenyl)methyl]-1-({4-[(4-methylpyrazol-1-yl)methyl]phenyl}methyl)-3-(trifluoromethyl)pyrazole-4-carboxamide], the values for the IC50 on Human plasma kallikrein and at Human KLK1 were 136 nM and over 10000 nM, respectively.

In the case of `COCc1nn(Cc2ccc(N3CCCC3)nc2)cc1C(=O)NCc1csc2ccc(Cl)cc12` [Example 46, N-[(5-chloro-1-benzothiophen-3-yl)methyl]-3-(methoxymethyl)-1-{[6-(pyrrolidin-1-yl)pyridin-3-yl]methyl}pyrazole-4-carboxamide], the results for the half-maximal inhibitory concentration (IC50) at Human plasma kallikrein and on Human KLK1 were 2400 nM and over 10000 nM, respectively.

As for `COCc1nn(Cc2ccc(Cn3ccccc3=O)cc2)cc1C(=O)NCc1cccc(O)c1F` [Example 129, N-[(2-fluoro-3-hydroxyphenyl)methyl]-3-(methoxymethyl)-1-({4-[(2-oxopyridin-1-yl)methyl]phenyl}methyl)pyrazole-4-carboxamide], the IC50 at Human plasma kallikrein came to 437 nM. For the same molecule, the inhibition at 40 µM against Human FXIa came to 0%.

For the molecule `Cc1cnn(Cc2ccc(Cn3cc(C(=O)NCc4c(F)cc(Cl)cc4F)c(C(F)(F)F)n3)cc2)c1` [Example 16, N-[(4-chloro-2,6-difluorophenyl)methyl]-1-({4-[(4-methylpyrazol-1-yl)methyl]phenyl}methyl)-3-(trifluoromethyl)pyrazole-4-carboxamide], the 50% inhibitory concentration (IC50) is 263 nM at Human plasma kallikrein and over 10000 nM on Human KLK1.

For `Cc1cnn(Cc2ccc(Cn3cc(C(=O)NCc4cccc(F)c4C)c(C(F)(F)F)n3)cc2)c1` [Example 27, N-[(3-fluoro-2-methylphenyl)methyl]-1-({4-[(4-methylpyrazol-1-yl)methyl]phenyl}methyl)-3-(trifluoromethyl)pyrazole-4-carboxamide], the concentration for half-maximal inhibition (IC50) on Human plasma kallikrein and against Human KLK1 was over 10000 nM in each case.

As to `COCc1nn(Cc2ccc(Cn3ccccc3=O)cc2)cc1C(=O)NCc1c(F)ccc(OC)c1C(F)F` [Example 83, N-{[2-(difluoromethyl)-6-fluoro-3-methoxyphenyl]methyl}-3-(methoxymethyl)-1-({4-[(2-oxopyridin-1-yl)methyl]phenyl}methyl)pyrazole-4-carboxamide], the inhibition at 40 µM at Human FXIa stood at 14%.

On to `COCc1nn(Cc2ccc(Cn3ccccc3=O)cc2)cc1C(=O)NCc1ccc(C)nc1` [Example 32, 3-(methoxymethyl)-N-[(6-methylpyridin-3-yl)methyl]-1-({4-[(2-oxopyridin-1-yl)methyl]phenyl}methyl)pyrazole-4-carboxamide], for which the half-inhibitory concentration (IC50) at Human plasma kallikrein was 7870 nM; against Human KLK1 it was over 10000 nM.

For `Cc1cc(C)c(CNC(=O)c2cn(Cc3ccc(Cn4cc(C)cn4)cc3)nc2C(F)(F)F)c(C)c1` [Example 26, 1-({4-[(4-methylpyrazol-1-yl)methyl]phenyl}methyl)-3-(trifluoromethyl)-N-[(2,4,6-trimethylphenyl)methyl]pyrazole-4-carboxamide], the concentration for half-maximal inhibition (IC50) was 1340 nM on Human plasma kallikrein and over 10000 nM on Human KLK1.

Consider `NC(=O)c1ccc(CNC(=O)c2cn(Cc3ccc(Cn4ccccc4=O)cc3)nc2C2CC2)cc1` [Example 50, N-[(4-carbamoylphenyl)methyl]-3-cyclopropyl-1-({4-[(2-oxopyridin-1-yl)methyl]phenyl}methyl)pyrazole-4-carboxamide], for which the half-inhibitory concentration (IC50) is 1800 nM on Human plasma kallikrein and over 10000 nM against Human KLK1.

For the molecule `COCc1nn(Cc2ccc(Cn3cc(F)ccc3=O)cc2)cc1C(=O)NCc1c(F)ccc(OC)c1F` [Example 108, N-[(2,6-difluoro-3-methoxyphenyl)methyl]-1-({4-[(5-fluoro-2-oxopyridin-1-yl)methyl]phenyl}methyl)-3-(methoxymethyl)pyrazole-4-carboxamide], the half-inhibitory concentration (IC50) at Human plasma kallikrein was 5.5 nM; against Human KLK1 it was over 10000 nM.

As for `COCc1nn(Cc2ccc(Cn3ccccc3=O)cc2)cc1C(=O)NCc1csc2ccc(Cl)cc12` [Example 45, N-[(5-chloro-1-benzothiophen-3-yl)methyl]-3-(methoxymethyl)-1-({4-[(2-oxopyridin-1-yl)methyl]phenyl}methyl)pyrazole-4-carboxamide], the 50% inhibitory concentration (IC50) at Human plasma kallikrein was 144 nM; at Human KLK1, over 10000 nM.

In turn, `COCc1nn(Cc2ccc(Cn3ccccc3=O)cc2)cc1C(=O)NCc1c(Cl)ccc(OC)c1F` [Example 99, N-[(6-chloro-2-fluoro-3-methoxyphenyl)methyl]-3-(methoxymethyl)-1-({4-[(2-oxopyridin-1-yl)methyl]phenyl}methyl)pyrazole-4-carboxamide] yielded an inhibition at 40 µM at Human FXIa of 4%.

With `Cc1cnn(Cc2ccc(Cn3cc(C(=O)NCc4c(Cl)cccc4Cl)c(C(F)(F)F)n3)cc2)c1` [Example 22, N-[(2,6-dichlorophenyl)methyl]-1-({4-[(4-methylpyrazol-1-yl)methyl]phenyl}methyl)-3-(trifluoromethyl)pyrazole-4-carboxamide], the results for the IC50 on Human plasma kallikrein and against Human KLK1 were 1350 nM and over 10000 nM, respectively.
